Legend:
[1] = test system: mouse primary microglial cells; assay: NO release assay (Griess) in primary microglial cells; format: cell-based; settings: for LPS-induced NO production: 1 μM pretreatment 1 h, then LPS 0.1 μg/mL 24 h; for NO levels under basal conditions: 1 μM, no LPS
Method: Primary microglial cell cultures were derived from the cortices of 1–2-day-old mouse pups (1pup/1 brain/1 flask). After decapitation, the brains were extracted and immediately placed in cold Hanks’ Balanced Salt Solution (HBSS, Gibco, New York, NY, USA) on ice. The brains were washed at least three times with 7 mL of HBSS and then transferred to 10 mL of fresh culture media consisting of Dulbecco’s Modified Eagle Medium (DMEM) with GlutaMax and high glucose (4.5 g/L) (Gibco, New York, NY, USA) on ice. The tissue was minced and incubated in HBSS containing glucose, bovine serum albumin (BSA; Sigma-Aldrich, St. Louis, MO, USA), and HEPES (Gibco, New York, NY, USA) with 0.025% trypsin at 37 °C for 20 min. The trypsinization was halted by adding DMEM with GlutaMax and high glucose (4.5 g/L) supplemented with 10% heat-inactivated fetal bovine serum (FBS, Gibco, New York, NY, USA). The tissue was then gently triturated to obtain a single-cell suspension. Cells were plated at a density of 3 × 10^5 cells/cm^2 in culture medium composed of DMEM with GlutaMax and high glucose (4.5 g/L), supplemented with 10% heat-inactivated FBS, 100 U/mL penicillin, and 0.1 mg/mL streptomycin (all from Gibco, New York, NY, USA), in poly-L-lysine-coated 75 cm^2 culture flasks. On the ninth day in vitro (maintained at 37 °C, 5% CO2), the flasks were agitated on a horizontal shaker for 1 h at 37 °C and 80 rpm. Following centrifugation, the cells were resuspended in culture medium and seeded at final densities of 1.25 × 10^6 cells/well in 6-well plates, 2 × 10^5 cells/well in 24-well plates, or 4 × 10^4 cells/well in 96-well plates. The purity of microglial cell cultures was assessed as we have shown previously.
Microglia cell cultures were pretreated with the FPR2 agonists 8b (1 µM) or 7b (1 µM) for 1 h and then stimulated with lipopolysaccharide (LPS; 0.1 μg/mL; Escherichia coli 0111:B4; Sigma-Aldrich, St. Louis, MO, USA) for 24 h. The concentration of 1 μM was chosen based on our preliminary data (Supplementary File). Control cultures were treated with the appropriate vehicle. […]
NO (nitrite ion in solution) production from LPS-treated microglial cells was measured using the Griess reaction, as previously described by. After 24 h of treatment, equal volumes of cell culture medium and Griess reagents (Griess A: 0.1% N-1-naphthylethylenediamine dihydrochloride and Griess B: 1% sulfanilamide in 5% phosphoric acid) were combined in a 96-well plate and the absorbance was read at 540 nm using an Infinite M200PRO microplate reader (TECAN, Männedorf, Switzerland). The results were normalized to the NO levels released by vehicle-treated cells (set at 100%) and expressed as a percentage of the control ± SD.

[2] = Cell-free H2S release fluorescence assay with probe 9 (7-azido-4-methylcoumarin); format: physicochemical; settings: PBS/DMSO 10%, 37 °C, probe 9 100 μM
Method: The H2S release fluorescence assay was carried out in a final volume of 100 μL PBS/DMSO 10% in black 96-well plates. Solutions with decreasing concentrations of each tested compound were prepared in PBS/DMSO 10%. Then, 50 μL of each solution was dispensed in triplicate in each well. Starting from a 10 mM stock solution, a 200 μM solution of probe 9 was prepared and stored in the dark until 50 μL was dispensed in each well. Blank wells containing only the probe at 100 μM in 100 μL of PBS/DMSO 10% are also prepared. A H2S calibration curve was obtained by incubating solutions of NaSH with the probe under the same conditions, although a different plate was used to minimize interferences due to the diffusion of rapidly released H2S. After 24 h and 48 h incubation in a humidified incubator at 37 °C, 5% CO2, fluorescence reads are obtained from each well with a plate reader TECAN M1000 Pro (Tecan, Männedorf, Switzerland), at λex = 350 nm and λem = 440 nm. Each experiment was replicated at least three times. The data were processed using Microsoft Excel (Microsoft, Redmond, WA, USA) and GraphPad Prism 7 (GraphPad Software, La Jolla, CA, USA).
Compound 9 is a turn-on fluorescent probe that features an azido moiety which can be reduced to amine by H2S, leading to the formation of the fluorescent derivative 7-amino-4-methylcoumarin 10 (λex = 350 nm and λem = 440 nm, Scheme 2). We included NaHS in the assay as a positive control and 3a as a negative control.

FPR2 = biological target: T1, FPR2 (Homo sapiens, UniProt P25090); assay: Ca2+ mobilization (agonist activity) in FPR2-HL60 cells; settings: for Ca2+ Mobilization HL60-FPR2 Efficacy: response to 5 nM WKYMVM = 100%
T1 sequence (P25090 1-351): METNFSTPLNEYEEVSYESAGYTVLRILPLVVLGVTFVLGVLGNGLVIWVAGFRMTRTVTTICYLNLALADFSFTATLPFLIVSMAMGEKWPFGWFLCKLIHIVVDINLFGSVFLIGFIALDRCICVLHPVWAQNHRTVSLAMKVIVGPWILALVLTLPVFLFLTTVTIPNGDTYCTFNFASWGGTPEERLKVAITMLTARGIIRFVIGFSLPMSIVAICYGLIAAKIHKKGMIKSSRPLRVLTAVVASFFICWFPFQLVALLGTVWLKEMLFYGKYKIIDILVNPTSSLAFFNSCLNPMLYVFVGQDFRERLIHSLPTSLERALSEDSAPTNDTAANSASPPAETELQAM

| Structure (SMILES) | LPS-induced NO production [1] | NO levels under basal conditions [1] | H2S release detected with probe 9 in aqueous media ([2]; 24 h incubation) | H2S release detected with probe 9 in aqueous media ([2]; 48 h incubation) | fold less potent at FPR2 than the corresponding urea/amide (FPR2; ratio of FPR2 EC50 vs 3b, 3c or 4b) [fold] | Ca2+ Mobilization HL60-FPR2 Efficacy (FPR2) [%] |
| --- | --- | --- | --- | --- | --- | --- |
| N#Cc1ccc(C[C@H](NC(=O)Nc2ccc(F)cc2)C(=S)N2CCc3ccccc32)cc1 [7b, (S)-1-[3-(4-Cyanophenyl)-1-(indolin-1-yl)-1-thioxopropan-2-yl]-3-(4-fluorophenyl)urea] | effectively attenuated | neither compound increased NO levels | detected H2S release | more intense | 23 | 170 |
| N#Cc1ccc(C[C@H](NC(=O)Nc2ccc(Br)cc2)C(=S)N2CCc3ccccc32)cc1 [8b, (S)-1-(4-Bromophenyl)-3-[3-(4-cyanophenyl)-1-(indolin-1-yl)-1-thioxopropan-2-yl]urea] | effectively attenuated | neither compound increased NO levels |  | limited capability to release H2S |  | 150 |
